Biological target: T1, chimeric human H3 receptor (Homo sapiens, UniProt Q9Y5N1)
T1 construct: made in house; host or cells: Sf9 insect cells (baculovirus); P2 membrane preparation
Experiment: Chimeric human H3 receptor screening GTP binding assay (inhibition of histamine-stimulated GTP-gamma35S binding, Example 8)
Assay type: biochemical
Details: Table II "Ki", symbol †, 4 μM of the compound, 1 μM histamine, read-out: percent inhibition of the signal obtained with 1 μM histamine
Method in brief: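 Values are percent inhibition of 1 μM histamine-stimulated GTP-gamma35S […] binding, with non-specific binding (10 μM GTP-gammaS) subtracted, by compounds tested at 4 μM. Membranes (35 μg) from Sf9 cells expressing chimeric human H3 with G-protein subunits were used in Tris pH 7.4 buffer with 10 μM GDP. Incubation lasted 60 min at room temperature, followed by filtration and scintillation counting.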

T1 sequence (Q9Y5N1 with tags, fused parts or gaps): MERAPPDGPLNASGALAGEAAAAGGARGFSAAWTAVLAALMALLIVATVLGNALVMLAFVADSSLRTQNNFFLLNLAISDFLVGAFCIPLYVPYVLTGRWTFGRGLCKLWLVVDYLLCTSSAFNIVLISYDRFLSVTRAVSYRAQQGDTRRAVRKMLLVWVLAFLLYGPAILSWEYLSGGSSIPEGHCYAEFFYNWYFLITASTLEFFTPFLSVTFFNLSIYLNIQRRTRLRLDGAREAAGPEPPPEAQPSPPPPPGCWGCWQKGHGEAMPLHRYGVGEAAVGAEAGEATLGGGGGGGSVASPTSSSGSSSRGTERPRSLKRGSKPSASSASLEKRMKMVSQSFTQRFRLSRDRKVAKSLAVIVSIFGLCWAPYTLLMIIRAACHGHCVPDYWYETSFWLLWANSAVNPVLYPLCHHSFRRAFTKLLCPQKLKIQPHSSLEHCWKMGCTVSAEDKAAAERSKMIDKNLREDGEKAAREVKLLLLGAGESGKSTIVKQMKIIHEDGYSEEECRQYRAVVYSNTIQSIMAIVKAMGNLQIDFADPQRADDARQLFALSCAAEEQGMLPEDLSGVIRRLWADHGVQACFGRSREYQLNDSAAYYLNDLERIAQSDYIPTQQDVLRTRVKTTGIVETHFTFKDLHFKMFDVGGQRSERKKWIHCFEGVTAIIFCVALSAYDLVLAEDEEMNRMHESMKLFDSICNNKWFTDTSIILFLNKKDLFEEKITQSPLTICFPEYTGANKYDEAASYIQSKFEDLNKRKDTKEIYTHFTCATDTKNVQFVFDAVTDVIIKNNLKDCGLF

Inhibition at 4 µM, ≥ 90%:
O=C(CN1CCc2cc(-c3cccc(OC(F)(F)F)c3)ccc2C1)N1CCN(C2CCC2)CC1 [Compound 490, 2-[2-(4-cyclobutylpiperazin-1-yl)-2-oxoethyl]-6-[3-(trifluoromethoxy)phenyl]-1,2,3,4-tetrahydroisoquinoline]
O=C(CN1CCc2cc(-c3cccc(OC(F)(F)F)c3)ccc2C1)N1CCN(C2CCCC2)CC1 [Compound 491, 2-[2-(4-cyclopentylpiperazin-1-yl)-2-oxoethyl]-6-[3-(trifluoromethoxy)phenyl]-1,2,3,4-tetrahydroisoquinoline]
O=C(CN1CCc2cc(-c3cccc(OC(F)(F)F)c3)ccc2C1)N1CCN(C2CCCCC2)CC1 [Compound 492, 2-[2-(4-cyclohexylpiperazin-1-yl)-2-oxoethyl]-6-[3-(trifluoromethoxy)phenyl]-1,2,3,4-tetrahydroisoquinoline]
CC(C)N1CCN(C(=O)CN2CCc3cc(-c4cccc(OC(F)(F)F)c4)ccc3C2)CC1 [Compound 493, 2-[2-(4-isopropylpiperazin-1-yl)-2-oxoethyl]-6-[3-(trifluoromethoxy)phenyl]-1,2,3,4-tetrahydroisoquinoline]
CSc1cccc(-c2ccc3c(c2)CCN(CC(=O)N2CCN(C4CCC4)CC2)C3)c1 [Compound 494, 2-[2-(4-cyclobutylpiperazin-1-yl)-2-oxoethyl]-6-[3-(methylthio)phenyl]-1,2,3,4-tetrahydroisoquinoline]
CSc1cccc(-c2ccc3c(c2)CCN(CC(=O)N2CCN(C4CCCC4)CC2)C3)c1 [Compound 495, 2-[2-(4-cyclopentylpiperazin-1-yl)-2-oxoethyl]-6-[3-(methylthio)phenyl]-1,2,3,4-tetrahydroisoquinoline]
CSc1cccc(-c2ccc3c(c2)CCN(CC(=O)N2CCN(C4CCCCC4)CC2)C3)c1 [Compound 496, 2-[2-(4-cyclohexylpiperazin-1-yl)-2-oxoethyl]-6-[3-(methylthio)phenyl]-1,2,3,4-tetrahydroisoquinoline]
CSc1cccc(-c2ccc3c(c2)CCN(CC(=O)N2CCN(C(C)C)CC2)C3)c1 [Compound 497, 2-[2-(4-isopropylpiperazin-1-yl)-2-oxoethyl]-6-[3-(methylthio)phenyl]-1,2,3,4-tetrahydroisoquinoline]
COc1ccc(-c2ccc(-c3ccc4c(c3)CCN(CC(=O)N3CCN(C5CCC5)CC3)C4)cc2)cc1 [Compound 498, 2-[2-(4-cyclobutylpiperazin-1-yl)-2-oxoethyl]-6-(4′-methoxybiphenyl-4-yl)-1,2,3,4-tetrahydroisoquinoline]
COc1ccc(-c2ccc(-c3ccc4c(c3)CCN(CC(=O)N3CCN(C5CCCC5)CC3)C4)cc2)cc1 [Compound 499, 2-[2-(4-cyclopentylpiperazin-1-yl)-2-oxoethyl]-6-(4′-methoxybiphenyl-4-yl)-1,2,3,4-tetrahydroisoquinoline]
COc1ccc(-c2ccc(-c3ccc4c(c3)CCN(CC(=O)N3CCN(C5CCCCC5)CC3)C4)cc2)cc1 [Compound 500, 2-[2-(4-cyclohexylpiperazin-1-yl)-2-oxoethyl]-6-(4′-methoxybiphenyl-4-yl)-1,2,3,4-tetrahydroisoquinoline]
COc1ccc(-c2ccc(-c3ccc4c(c3)CCN(CC(=O)N3CCN(C(C)C)CC3)C4)cc2)cc1 [Compound 501, 2-[2-(4-isopropylpiperazin-1-yl)-2-oxoethyl]-6-(4′-methoxybiphenyl-4-yl)-1,2,3,4-tetrahydroisoquinoline]
COc1ccc(-c2ccc3c(c2)CCN(CC(=O)N2CCN(C4CCCCC4)CC2)C3)cc1F [Compound 504, 2-[2-(4-cyclohexylpiperazin-1-yl)-2-oxoethyl]-6-(3-fluoro-4-methoxyphenyl)-1,2,3,4-tetrahydroisoquinoline]
COc1ccc(-c2ccc3c(c2)CCN(CC(=O)N2CCN(C(C)C)CC2)C3)cc1F [Compound 505, 6-(3-fluoro-4-methoxyphenyl)-2-[2-(4-isopropylpiperazin-1-yl)-2-oxoethyl]-1,2,3,4-tetrahydroisoquinoline]
COc1cc(F)c(-c2ccc3c(c2)CCN(CC(=O)N2CCN(C(C)C)CC2)C3)cc1F [Compound 508, 6-(2,5-difluoro-4-methoxyphenyl)-2-[2-(4-isopropylpiperazin-1-yl)-2-oxoethyl]-1,2,3,4-tetrahydroisoquinoline]
COc1ccc2cc(-c3ccc4c(c3)CCN(CC(=O)N3CCN(C5CCCC5)CC3)C4)ccc2c1 [Compound 510, 2-[2-(4-cyclopentylpiperazin-1-yl)-2-oxoethyl]-6-(6-methoxy-2-naphthyl)-1,2,3,4-tetrahydroisoquinoline]
COc1ccc2cc(-c3ccc4c(c3)CCN(CC(=O)N3CCN(C5CCCCC5)CC3)C4)ccc2c1 [Compound 511, 2-[2-(4-cyclohexylpiperazin-1-yl)-2-oxoethyl]-6-(6-methoxy-2-naphthyl)-1,2,3,4-tetrahydroisoquinoline]
COc1ccc2cc(-c3ccc4c(c3)CCN(CC(=O)N3CCN(C(C)C)CC3)C4)ccc2c1 [Compound 512, 2-[2-(4-isopropylpiperazin-1-yl)-2-oxoethyl]-6-(6-methoxy-2-naphthyl)-1,2,3,4-tetrahydroisoquinoline]
CC(C)Oc1cccc(-c2ccc3c(c2)CCN(CC(=O)N2CCN(C4CCCC4)CC2)C3)c1 [Compound 514, 2-[2-(4-cyclopentylpiperazin-1-yl)-2-oxoethyl]-6-(3-isopropoxyphenyl)-1,2,3,4-tetrahydroisoquinoline]
CC(C)Oc1cccc(-c2ccc3c(c2)CCN(CC(=O)N2CCN(C(C)C)CC2)C3)c1 [Compound 515, 6-(3-isopropoxyphenyl)-2-[2-(4-isopropylpiperazin-1-yl)-2-oxoethyl]-1,2,3,4-tetrahydroisoquinoline]
COc1cc(-c2ccc3c(c2)CCN(CC(=O)N2CCN(C4CCCCC4)CC2)C3)cc(OC)c1OC [Compound 518, 2-[2-(4-cyclohexylpiperazin-1-yl)-2-oxoethyl]-6-(3,4,5-trimethoxyphenyl)-1,2,3,4-tetrahydroisoquinoline]
COc1cc(-c2ccc3c(c2)CCN(CC(=O)N2CCN(C(C)C)CC2)C3)cc(OC)c1OC [Compound 519, 2-[2-(4-isopropylpiperazin-1-yl)-2-oxoethyl]-6-(3,4,5-trimethoxyphenyl)-1,2,3,4-tetrahydroisoquinoline]
COc1ccc(-c2ccc3c(c2)CCN(CC(=O)N2CCN(C4CCCCC4)CC2)C3)cc1 [Compound 522]
COc1ccc(-c2ccc3c(c2)CCN(CC(=O)N2CCN(C(C)C)CC2)C3)cc1 [Compound 523, 2-[2-(4-isopropylpiperazin-1-yl)-2-oxoethyl]-6-(4-methoxyphenyl)-1,2,3,4-tetrahydroisoquinoline]
CCOc1ccc(-c2ccc3c(c2)CCN(CC(=O)N2CCN(C4CCCCC4)CC2)C3)cc1 [Compound 530, 2-[2-(4-cyclohexylpiperazin-1-yl)-2-oxoethyl]-6-(4-ethoxyphenyl)-1,2,3,4-tetrahydroisoquinoline]
CCOc1ccc(-c2ccc3c(c2)CCN(CC(=O)N2CCN(C(C)C)CC2)C3)cc1 [Compound 531, 6-(4-ethoxyphenyl)-2-[2-(4-isopropylpiperazin-1-yl)-2-oxoethyl]-1,2,3,4-tetrahydroisoquinoline]
CN(C)c1ccc(-c2ccc3c(c2)CCN(CC(=O)N2CCN(C4CCCCC4)CC2)C3)cc1 [Compound 534, 4-{2-[2-(4-cyclohexylpiperazin-1-yl)-2-oxoethyl]-1,2,3,4-tetrahydroisoquinolin-6-yl}-N,N-dimethylaniline]
CC(C)N1CCN(C(=O)CN2CCc3cc(-c4ccc(N(C)C)cc4)ccc3C2)CC1 [Compound 535, 4-{2-[2-(4-isopropylpiperazin-1-yl)-2-oxoethyl]-1,2,3,4-tetrahydroisoquinolin-6-yl}-N,N-dimethylaniline]
CN(C)c1cccc(-c2ccc3c(c2)CCN(CC(=O)N2CCN(C4CCCC4)CC2)C3)c1 [Compound 537, 3-{2-[2-(4-cyclopentylpiperazin-1-yl)-2-oxoethyl]-1,2,3,4-tetrahydroisoquinolin-6-yl}-N,N-dimethylaniline]
CN(C)c1cccc(-c2ccc3c(c2)CCN(CC(=O)N2CCN(C4CCCCC4)CC2)C3)c1 [Compound 538, 3-{2-[2-(4-cyclohexylpiperazin-1-yl)-2-oxoethyl]-1,2,3,4-tetrahydroisoquinolin-6-yl}-N,N-dimethylaniline]
CC(C)N1CCN(C(=O)CN2CCc3cc(-c4cccc(N(C)C)c4)ccc3C2)CC1 [Compound 539, 3-{2-[2-(4-isopropylpiperazin-1-yl)-2-oxoethyl]-1,2,3,4-tetrahydroisoquinolin-6-yl}-N,N-dimethylaniline]
COc1ccc(-c2ccc3c(c2)CCN(CC(=O)N2CCN(C4CCCCC4)CC2)C3)cc1C [Compound 542, 2-[2-(4-cyclohexylpiperazin-1-yl)-2-oxoethyl]-6-(4-methoxy-3-methylphenyl)-1,2,3,4-tetrahydroisoquinoline]
COc1ccc(-c2ccc3c(c2)CCN(CC(=O)N2CCN(C(C)C)CC2)C3)cc1C [Compound 543, 2-[2-(4-isopropylpiperazin-1-yl)-2-oxoethyl]-6-(4-methoxy-3-methylphenyl)-1,2,3,4-tetrahydroisoquinoline]
CCCOc1ccc(-c2ccc3c(c2)CCN(CC(=O)N2CCN(C4CCCCC4)CC2)C3)cc1 [Compound 546, 2-[2-(4-cyclohexylpiperazin-1-yl)-2-oxoethyl]-6-(4-propoxyphenyl)-1,2,3,4-tetrahydroisoquinoline]
